Test results from PubChem BioAssay AID1259407 (Chemical Carcinogenesis Research Information System (CCRIS), 2018).
Calls of active or inactive are those of the source. No rule for the calls is given here.

System: CCRIS mutagenicity, Ames/micronucleus/aberration tests
Test: CCRIS mutagenicity studies

Measured: mutagenic call

O=CC(O)C(O)C(O)C(O)COC1OC(COC2OC(CO)C(O)C(O)C2O)C(O)C(O)C1O (configuration not stated)
inactive: Test System: AMES SALMONELLA TYPHIMURIUM, Strain/Indicator: TA98, Metabolic Activation: HAMSTER, LIVER, S-9, AROCLOR 1254, Method: STANDARD PLATE inactive; negative | Test System: AMES SALMONELLA TYPHIMURIUM, Strain/Indicator: TA98, Metabolic Activation: NONE, Method: STANDARD PLATE inactive; negative | Test System: AMES SALMONELLA TYPHIMURIUM, Strain/Indicator: TA98, Metabolic Activation: RAT, LIVER, S-9, AROCLOR 1254, Method: STANDARD PLATE inactive; negative | Test System: AMES SALMONELLA TYPHIMURIUM, Strain/Indicator: TA100, Metabolic Activation: HAMSTER, LIVER, S-9, AROCLOR 1254, Method: STANDARD PLATE inactive; negative | Test System: AMES SALMONELLA TYPHIMURIUM, Strain/Indicator: TA100, Metabolic Activation: NONE, Method: STANDARD PLATE inactive; negative | Test System: AMES SALMONELLA TYPHIMURIUM, Strain/Indicator: TA100, Metabolic Activation: RAT, LIVER, S-9, AROCLOR 1254, Method: STANDARD PLATE inactive; negative | Test System: AMES SALMONELLA TYPHIMURIUM, Strain/Indicator: TA1535, Metabolic Activation: HAMSTER, LIVER, S-9, AROCLOR 1254, Method: STANDARD PLATE inactive; negative | Test System: AMES SALMONELLA TYPHIMURIUM, Strain/Indicator: TA1535, Metabolic Activation: NONE, Method: STANDARD PLATE inactive; negative | Test System: AMES SALMONELLA TYPHIMURIUM, Strain/Indicator: TA1535, Metabolic Activation: RAT, LIVER, S-9, AROCLOR 1254, Method: STANDARD PLATE inactive; negative | Test System: AMES SALMONELLA TYPHIMURIUM, Strain/Indicator: TA1537, Metabolic Activation: HAMSTER, LIVER, S-9, AROCLOR 1254, Method: STANDARD PLATE inactive; negative | Test System: AMES SALMONELLA TYPHIMURIUM, Strain/Indicator: TA1537, Metabolic Activation: NONE, Method: STANDARD PLATE inactive; negative | Test System: AMES SALMONELLA TYPHIMURIUM, Strain/Indicator: TA1537, Metabolic Activation: RAT, LIVER, S-9, AROCLOR 1254, Method: STANDARD PLATE inactive; negative | Test System: AMES SALMONELLA TYPHIMURIUM, Strain/Indicator: TA1538, Metabolic Activation: HAMSTER, LIVER, S-9, AROCLOR 1254, Method: STANDARD PLATE inactive; negative | Test System: AMES SALMONELLA TYPHIMURIUM, Strain/Indicator: TA1538, Metabolic Activation: NONE, Method: STANDARD PLATE inactive; negative | Test System: AMES SALMONELLA TYPHIMURIUM, Strain/Indicator: TA1538, Metabolic Activation: RAT, LIVER, S-9, AROCLOR 1254, Method: STANDARD PLATE inactive; negative | Test System: Mouse lymphoma, Strain/Indicator: L5178Y (tk+/tk-), Metabolic Activation: None, Method: Suspension/plate inactive; negative | Test System: Mouse lymphoma, Strain/Indicator: L5178Y (tk+/tk-), Metabolic Activation: Rat, Liver, S-9, Aroclor 1254, Method: Suspension/plate inactive; negative
